Reference: ChEMBL document CHEMBL3593215, “Design, synthesis and antiproliferative activities of novel benzamides derivatives as HDAC inhibitors” (Eur J Med Chem, 2015)

Key:
[1] = molecular target: T1, Histone deacetylase 1 (Homo sapiens, UniProt Q13547); assay: Inhibition of HDAC1 (unknown origin) preincubated for 5 mins followed by fluorogenic substrate addition measured after 30 mins by microplate reader analysis
[2] = system: MCF7; assay: Cytotoxicity against human MCF7 cells assessed as inhibition of cell proliferation after 72 hrs by MTT assay; format: functional, cell-based; settings: MCF7, 72 h
[3] = system: A549; assay: Cytotoxicity against human A549 cells assessed as inhibition of cell proliferation after 72 hrs by MTT assay; format: functional, cell-based; settings: A549, 72 h
[4] = system: HCT-116; assay: Cytotoxicity against human HCT116 cells assessed as inhibition of cell proliferation after 72 hrs by MTT assay; format: functional, cell-based; settings: HCT-116, 72 h
[5] = molecular target: T1, Histone deacetylase 1; assay: Potency index, ratio of MS-275 IC50 to compound IC50 for HDAC1 (unknown origin)
[6] = system: A549; assay: Potency index, ratio of MS-275 IC50 to compound IC50 for human A549 cells; format: functional
[7] = Elimination half life in Sprague-Dawley rat at 25 mg/kg, po; format: ADME, organism-based; settings: in vivo, read-out: beta t1/2 (converted)
[8] = Tmax in Sprague-Dawley rat at 25 mg/kg, po; format: ADME, organism-based; settings: in vivo
[9] = AUClast in Sprague-Dawley rat at 25 mg/kg, po; format: ADME, organism-based; parameters: dose 25 mg/kg, route oral, time 0 - last; settings: in vivo
[10] = Elimination half life in Sprague-Dawley rat at 5 mg/kg, iv; format: ADME, organism-based; settings: in vivo, read-out: beta t1/2 (converted)
[11] = Oral bioavailability in Sprague-Dawley rat at 25 mg/kg; format: ADME, organism-based; settings: in vivo
[12] = AUCinfinity_obs in Sprague-Dawley rat at 25 mg/kg, po; format: ADME, organism-based; parameters: dose 25 mg/kg, time infinity, route oral; settings: in vivo

T1 sequence (Q13547 whole entry): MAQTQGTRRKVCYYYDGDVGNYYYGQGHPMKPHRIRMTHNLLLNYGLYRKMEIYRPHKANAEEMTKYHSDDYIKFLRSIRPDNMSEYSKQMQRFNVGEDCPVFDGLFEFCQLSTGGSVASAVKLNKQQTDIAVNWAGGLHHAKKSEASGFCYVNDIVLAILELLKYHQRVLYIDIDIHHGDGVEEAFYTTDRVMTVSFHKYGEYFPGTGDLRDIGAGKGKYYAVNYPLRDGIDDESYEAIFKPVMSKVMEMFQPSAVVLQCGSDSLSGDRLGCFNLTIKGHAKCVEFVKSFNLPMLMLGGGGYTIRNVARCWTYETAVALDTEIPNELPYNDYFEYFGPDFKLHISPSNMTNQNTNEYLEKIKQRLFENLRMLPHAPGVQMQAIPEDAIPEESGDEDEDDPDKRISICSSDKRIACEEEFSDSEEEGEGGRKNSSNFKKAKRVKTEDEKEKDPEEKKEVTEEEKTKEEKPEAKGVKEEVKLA

Structure (SMILES) | IC50 [1] | Ratio IC50 [5] | half-life [7] | Tmax [8] | AUC(0-t) [9] | half-life [10] | bioavailability [11] | AUC(0-inf) [12] | IC50 [2] | IC50 [3] | IC50 [4] | Ratio IC50 [6]
Cc1nc2ccccn2c1/C=C/C(=O)NCc1ccc(C(=O)Nc2ccccc2N)cc1 | 173 nM | – | – | – | – | – | – | – | 6220 nM | 1300 nM | 1430 nM | –
Nc1ccccc1NC(=O)c1ccc(CNC(=O)OCc2cccnc2)cc1 [ENTINOSTAT] | – | – | – | – | – | – | – | – | 7880 nM | 3130 nM | 5100 nM | –
Nc1cc(F)ccc1NC(=O)c1ccc(CNC(=O)/C=C/c2cnc3cccnn23)cc1 | 131 nM | – | – | – | – | – | – | – | 5510 nM | 791 nM | 2260 nM | –
Nc1ccccc1NC(=O)c1ccc(CNC(=O)/C=C/c2cnc3ccccn23)cc1 | 129 nM | – | – | – | – | – | – | – | 4130 nM | 832 nM | 2300 nM | –
Cc1nc2ccccn2c1/C=C/C(=O)NCCc1ccc(C(=O)Nc2ccccc2N)cc1 | 178 nM | – | – | – | – | – | – | – | 6800 nM | 1460 nM | 1960 nM | –

Continued by falling IC50 [1], values first:

IC50 [1] | Ratio IC50 [5] | half-life [7] | Tmax [8] | AUC(0-t) [9] | half-life [10] | bioavailability [11] | AUC(0-inf) [12] | Structure (SMILES) | IC50 [2] | IC50 [3] | IC50 [4] | Ratio IC50 [6]
217 nM | – | – | – | – | – | – | – | Nc1ccccc1NC(=O)c1ccc(CCNC(=O)/C=C/c2cnc3ccccn23)cc1 | 9440 nM | 1470 nM | 4500 nM | –
169 nM | – | – | – | – | – | – | – | Nc1ccccc1NC(=O)c1ccc(CCNC(=O)/C=C/c2c[nH]c3ccccc23)cc1 | 5020 nM | 1280 nM | 1570 nM | –
154 nM | – | – | – | – | – | – | – | Nc1ccccc1NC(=O)c1ccc(CCNC(=O)/C=C/c2cnc3cccnn23)cc1 | 4670 nM | 1150 nM | 2300 nM | –
137 nM | – | – | – | – | – | – | – | Nc1ccc(F)cc1NC(=O)c1ccc(CNC(=O)/C=C/c2cnc3cccnn23)cc1 | 11000 nM | 812 nM | 4290 nM | –
120 nM | 2 | – | – | – | – | – | – | Nc1ccccc1NC(=O)c1ccc(CNC(=O)/C=C/c2c[nH]c3ccccc23)cc1 | 2920 nM | 649 nM | 1220 nM | –
118 nM | 2 | 8.22 h | 1.17 h | 6780 ng·h/mL | 1.87 h | 76% | 8610 ng·h/mL | Nc1ccccc1NC(=O)c1ccc(CNC(=O)/C=C/c2cnc3cccnn23)cc1 | 2870 nM | 723 nM | 1260 nM | 5
